Experimental data as given in article PMC5190008, “BO-1055, a novel DNA cross-linking agent with remarkable low myelotoxicity shows potent activity in sarcoma models” (Oncotarget, 2016).

Experiments:
[1] = test system: A673 cells; test: Annexin V-APC/7-AAD apoptosis flow cytometry; assay type: cell-based, human; details: A673, 48 h, 1μM
Description: In order to quantify the apoptosis ratio in A673 cells treated with BO-1055 we performed Annexin V-APC/7-AAD staining assays. Early apoptosis was defined as the presence of Annexin V-positive and 7-AAD-negative cells. Late apoptosis was defined as Annexin V-positive and 7-AAD-positive cells. Total percent apoptosis was defined as the sum of early and late apoptotic cells as a percentage of the total cell number. BO-1055 induces apoptosis in the A673 cell line in a time-concentration dependent manner (Figure 3B). Around 50 % of treated cells entered apoptosis after 48 h at concentrations of 1μM.
Cell viability and apoptosis were determined using 7-AAD (BD Pharmingen, San Diego, CA) and Annexin V-APC (BD Pharmingen, San Diego, CA) staining according to the instructions provided by the manufacturer and as previously published. Cell cycle fractions were determined by propidium iodide nuclear staining. Briefly, cells were harvested, washed in PBS, fixed with 70% ethanol, and incubated with propidium iodide/RNase buffer (BD Biosciences, San Diego, CA) for 15 minutes at room temperature. Data was collected on BD LSR Fortessa fluorescence-activated cell analyzer using BD FACS Diva software and analyzed using FlowJo version 9.6 software (Tree Star, Inc. Ashland, OR). Cell cycle analysis was done by applying the Dean/Jett/Fox cell cycle model using FlowJo software.

[2] = test system: A673 xenografts; test: A673 xenografts in NSG mice; assay type: in vivo; details: 10mg/kg
Protocol: All mouse experiments were performed at the animal core facility at MSKCC under an approved protocol following the IACUC guidelines. Five to seven-week-old NOD/SCID IL2R gamma null (NSG) mice (bred at the Mouse Genetics Core Facility, MSKCC) were used for in vivo experiments. All mouse experiments were done following the IACUC guidelines at the animal facility at MSKCC. Tumors were induced using 10^6 A673 cells or A204 cells in 0.2ml 1:1 cellular medium, Matrigel matrix (BD Bioscience, Bedford, MA) and injected subcutaneously (s.q) into the right flank. The tumors were measured every 3 d with a caliper, and the diameters were recorded. Tumor volume was calculated by the formula a^2 b/2 where ‘a’ is the smallest and ‘b’ is the largest diameter. When the tumors reached 100mm^3, we randomized mice into control and drug treatment groups. Treatment groups received BO-1055 by tail vein injection at 10mg/kg, 20mg/kg and 30mg/kg q2d x 5 doses for mice bearing A673 xenografts. BO-1055 was given at 30mg/kg q2d x 5 doses for mice bearing A204 xenografts. De-identified patient tumor tissues were obtained in accordance with and approval from the MSKCC Institutional Review Board (IRB). Appropriate written consent and assent were obtained from the patients prior to sample collection. Patient derived xenografts were developed in NSG mice (second passage) from a patient with relapsed Ewing sarcoma, who was treated with two alkylating agents- cyclophosphamide and ifosfamide as part of a multi-agent chemotherapy prior to relapse. When the tumors reached 100mm^2, we randomized mice into control and drug treatment groups. Mice in the control groups received PBS injections while mice in the drug treatment group received the maximum tolerated dose (MTD) of cyclophosphamide 70mg/kg i.p. q2d x 3 (shown by shorter arrows) (Figure 5D). Tumor growth was not inhibited in the cyclophosphamide treated mice. When the tumors reached a size greater than 500mm^3, we started treatment with BO-1055 at a dose of 30mg/kg i.v. q2d x 4 doses (shown by longer arrows in Figure 4F). […]

[3] = test system: DSRCT cell lines; test: Alamar Blue cell proliferation assay; assay type: cell-based; details: Homo sapiens
Protocol: (§1) AlamarBlue® assay (Invitrogen, Carlsbad, CA, USA) was performed to evaluate anti-proliferative activity of the drugs in cell lines and primary cells. Cells were plated in 96-well plates ([…] in 200 μL of medium). After 12 h, one of the previously mentioned drugs was added to each well at the specified concentration and incubated for 72 h. At the end of the incubation period, 20 μL of stock solution (0.312 mg/mL) of the Alamar Blue was added to each well. The absorbance was measured using the Synergy H1 hybrid multi-mode microplate reader (BioTek, USA). The drug effect was quantified as the percentage of control absorbance at 540 nm and 585 nm. Optical density was determined for 3 replicates per treatment condition and cell proliferation in drug-treated cells was normalized to their respective controls. All experiments were performed in triplicate.
(§2) Data are presented as mean±S.E.M. of at least three independent experiments done in triplicate. The comparison of means between treated and control mice was performed using two-tailed T-test or ANOVA (for more than two groups) as implemented in GraphPad Prism (version 4; GraphPad Software). Graphpad Prism software was used to plot concentration-effect curves and determine the drug concentration that inhibited the growth of cell lines by 50% compared to the control (IC50). A p-value of 0.05 or less was considered significant. Combination index (CI) values, as calculated by CompuSyn software (Chou and Martin, 2007), were used to evaluate the interaction between BO-1055 and a second drug (Topotecan, SN38, Doxorubicin or PU-H71). The Chou-Talalay method was used to quantify the synergism (CI < 1), additive effect (CI = 1) and antagonism (CI > 1) of various drug combinations.

[4] = test system: TC32 cells; test: Alamar Blue cell proliferation assay; assay type: cell-based; details: Homo sapiens, TC-32; TC32, 72 h drug exposure
Protocol: as §1, §2

[5] = test system: A673 cells; test: Alamar Blue cell proliferation assay; assay type: cell-based; details: Homo sapiens; A673, 72 h drug exposure
Protocol: as §1, §2

[6] = test system: RH30 cells; test: Alamar Blue cell proliferation assay; assay type: cell-based; details: Homo sapiens; RH30, 72 h drug exposure
Protocol: as §1, §2

[7] = test system: OSA cells; test: Alamar Blue cell proliferation assay; assay type: cell-based; details: Homo sapiens, 72 h drug exposure
Protocol: as §1, §2

[8] = test system: osteosarcoma cell lines; test: Alamar Blue cell proliferation assay; assay type: cell-based; details: Homo sapiens
Protocol: as §1, §2

[9] = test system: A204 cells; test: Alamar Blue cell proliferation assay; assay type: cell-based; details: Homo sapiens; A204, 72 h drug exposure
Protocol: as §1, §2

[10] = test system: H526 cells; test: Alamar Blue cell proliferation assay; assay type: cell-based; details: Homo sapiens, NCI-H526; H526 (small cell lung cancer)
Protocol: as §1, §2

[11] = test system: U2OS cells; test: Alamar Blue cell proliferation assay; assay type: cell-based; details: Homo sapiens, 72 h drug exposure
Protocol: as §1, §2

[12] = test system: SAOS cells; test: Alamar Blue cell proliferation assay; assay type: cell-based; details: Homo sapiens, 72 h drug exposure
Protocol: as §1, §2

[13] = test system: Ewing sarcoma cell lines; test: Alamar Blue cell proliferation assay; assay type: cell-based, human
Protocol: as §1
Data are presented as mean±S.E.M. of at least three independent experiments done in triplicate. […] Combination index (CI) values, as calculated by CompuSyn software (Chou and Martin, 2007), were used to evaluate the interaction between BO-1055 and a second drug (Topotecan, SN38, Doxorubicin or PU-H71). The Chou-Talalay method was used to quantify the synergism (CI < 1), additive effect (CI = 1) and antagonism (CI > 1) of various drug combinations.

[14] = 20mg/kg and 30mg/kg/dose q2d x 5

## CN(C)CCNC(=O)c1cccc(NC(=O)Nc2ccc(N(CCCl)CCCl)cc2)c1 [BO-1055]
[1]
  treated cells entering apoptosis: Around 50%
[2]; [14]
  body weight: no significant decrease in body weight
  survival: prolonged survival
[2]; 20mg/kg and 30mg/kg/dose q2d x 5, tail vein
  tumor growth: inhibition of tumor growth
[3]
  IC50: 2000 to 3000 nM
[4]
  IC50: 600 nM
[5]
  IC50: 520 nM
[6]
  IC50: 240 nM
[7]
  IC50: > 10000 nM
[8]
  IC50: > 10000 nM
[9]
  IC50: 80 nM
[10]
  IC50: 250 nM
[11]
  IC50: > 10000 nM
[12]
  IC50: > 10000 nM
[13]
  IC50: submicromolar
